Measurements as given in patent publication US8765750B2, “Piperazine compound having a PGDS inhibitory effect” (Taiho Pharmaceutical Co., Ltd., priority 2010, dated 2014).

Biological target: human H-PGDS (Homo sapiens (Human), UniProt O60760)
Test: Hematopoietic prostaglandin D synthase (H-PGDS) inhibiting action
Type: biochemical
Conditions: for inhibition at 0.1 µM: read-out: Inhibition Rate (%) 0.1 μM; for IC50: inhibition concentration at 50% relative to H-PGDS, read-out: IC50
Procedure: The test was carried out according to the method of Urade, Y. et al. (J. Biol. Chem., 262, 3820-3825, (1987)). More specifically, the reaction mixture (49 μL) containing 100 mM Tris-HCl (pH 8.0), 1 mM reduced glutathione, 0.1 mg/mL γ-globulin, and human H-PGDS (q.s.), and a compound (final concentration: 0.01-100 μM) was preincubated at 25° C. for 5 minutes. A DMSO solution (final concentration: 1%) was added to the solvent control group. Subsequently, 1 μL of [^14C] prostaglandin H2 (final concentration: 10 μM) was added to start the reaction. One minute after the start of the reaction, 250 μL of a reaction stop solution (diethylether/methanol/1 M citric acid (30/4/1) at a temperature of −20° C. was added to stop the reaction. After the reaction was stopped, 50 μL of the upper-layer portion (organic solvent layer) was applied to a TLC plate and developed at −20° C. for 45 minutes (developing solvent: diethylether/methanol/acetic acid (90/2/1)). After drying the TLC plate, the TLC plate was exposed to an imaging plate for 1 to 24 hours, and the radioactivity corresponding to prostaglandin D2 (PGD2) was analyzed using an image analyzer (produced by Fujifilm Corporation). […]

[1] = compound at 0.1 μM, relative to the control group, human H-PGDS, [14C] prostaglandin H2 10 μM

Sequence of human H-PGDS (O60760 whole entry): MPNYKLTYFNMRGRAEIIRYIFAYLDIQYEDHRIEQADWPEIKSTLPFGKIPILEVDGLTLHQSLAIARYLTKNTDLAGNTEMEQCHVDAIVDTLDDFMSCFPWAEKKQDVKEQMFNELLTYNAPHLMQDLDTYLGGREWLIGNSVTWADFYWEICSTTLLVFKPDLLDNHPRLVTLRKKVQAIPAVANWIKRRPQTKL

Row | inhibition at 0.1 µM [1] [%] | IC50 [nM] | Molecule | Inhibition Rate (%) 0.1 μM [1] [%]
1 | 54.2 | 61 | Cc1nc(C)n(CCCc2ccc(N3CCC(NC(=O)N4CCN(C(=O)c5cccn5C)CC4)CC3)cc2)n1 [Compound 9, 4-((1-methylpyrrol-2-yl)-carbonyl)-N-(1-(4-(3-(3,5-dimethyl-1,2,4-triazol-1-yl)-propyl)-phenyl)-piperidin-4-yl)-1-piperazinecarboxamide] | 
2 | 53.6 |  | Cn1cccc1C(=O)N1CCN(C(=O)NC2CCN(c3ccc(CCC(=O)N4CCOCC4)cc3)CC2)CC1 [Compound 12, 4-((1-methylpyrrol-2-yl)-carbonyl)-N-(1-(4-(3-morpholino-3-oxopropyl)-phenyl)-piperidin-4-yl)-1-piperazinecarboxamide] | 
3 | 55.2 |  | Cn1cccc1C(=O)N1CCN(C(=O)NC2CCN(c3ccc(C(=O)NCc4cccnc4)cc3)CC2)CC1 [Compound 2, 4-((1-methylpyrrol-2-yl)-carbonyl)-N-(1-(4-(pyridin-3-ylmethylcarbamoyl)phenyl)-piperidin-4-yl)-1-piperazinecarboxamide] | 
4 | 66.7 |  | Cn1cccc1C(=O)N1CCN(C(=O)NC2CCN(c3ccc(C=CC(=O)N4CCOCC4)cc3)CC2)CC1 [Compound 11, 4-((1-methylpyrrol-2-yl)-carbonyl)-N-(1-(4-(3-morpholino-3-oxopropen-1-yl)-phenyl)-piperidin-4-yl)-1-piperazinecarboxamide] | 
5 | 69.1 | 27 | Cn1cccc1C(=O)N1CCN(C(=O)NC2CCN(c3ccc(C(=O)NCCN4CCOCC4)cc3)CC2)CC1 [Compound 3, 4-((1-methylpyrrol-2-yl)-carbonyl)-N-(1-(4-(2-morpholinoethylcarbamoyl)-phenyl)-piperidin-4-yl)-1-piperazinecarboxamide] | 
6 | 63 | 52 | Cn1cccc1C(=O)N1CCN(C(=O)NC2CCN(c3ccc(C(=O)N4CCCC4)cc3)CC2)CC1 [Compound 6, 4-((1-methylpyrrol-2-yl)-carbonyl)-N-(1-(4-(1-pyrrolidinylcarbonyl)phenyl)-piperidin-4-yl)-1-piperazinecarboxamide] | 
7 | 60.6 |  | Cn1cccc1C(=O)N1CCN(C(=O)NC2CCN(c3ccc(CCCn4cncn4)cc3)CC2)CC1 [Compound 8, 4-((1-methylpyrrol-2-yl)-carbonyl)-N-(1-(4-(3-(1,2,4-triazol-1-yl)-propyl)-phenyl)-piperidin-4-yl)-1-piperazinecarboxamide] | 
8 | 69.9 | 39 | CCn1cccc1C(=O)N1CCN(C(=O)NC2CCN(c3ccc(C(=O)NCCN4CCOCC4)cc3)CC2)CC1 [Compound 15, 4-((1-ethylpyrrol-2-yl)-carbonyl)-N-(1-(4-(2-morpholinoethylcarbamoyl)phenyl)-piperidin-4-yl)-1-piperazinecarboxamide] | 
9 | 75 | 15 | Cn1cccc1C(=O)N1CCN(C(=O)NC2CCN(c3ccc(CCn4ccnn4)cc3)CC2)CC1 [Compound 7, 4-((1-methylpyrrol-2-yl)-carbonyl)-N-(1-(4-(2-(1,2,3-triazol-1-yl)-ethyl)-phenyl)-piperidin-4-yl)-1-piperazinecarboxamide] | 
10 | 74.8 | 27 | Cn1cccc1C(=O)N1CCN(C(=O)NC2CCN(c3ccc(CCCn4ccnn4)cc3)CC2)CC1 [Compound 10, 4-((1-methylpyrrol-2-yl)-carbonyl)-N-(1-(4-(3-(1,2,3-triazol-1-yl)-propyl)-phenyl)-piperidin-4-yl)-1-piperazinecarboxamide] | 
11 | 57.2 |  | Cn1cccc1C(=O)N1CCN(C(=O)NC2CCN(c3ccc(C(=O)N4CCOCC4)cn3)CC2)CC1 [Compound 14, 4-((1-methylpyrrol-2-yl)-carbonyl)-N-(1-(5-(4-morpholinylcarbonyl)pyridin-2-yl)-piperidin-4-yl)-1-piperazinecarboxamide] | 

Row | Molecule | inhibition at 0.1 µM [1] [%] | IC50 [nM] | Inhibition Rate (%) 0.1 μM [1] [%]
12 | 4-(4-(4-((1-methylpyrrol-2-yl)-carbonyl)-1-piperazinecarbamoyl)piperidin-1-yl)-benzoic acid [Compound 1] |  | 67 | 57.7
